Usually IC50 stands for the concentration at which inhibition is half-maximal.

Series [1] is described as follows: Drug metabolism in human liver microsomes after 20 mins. Format: ADME. The note with it: read-out: Drug metabolism. A general note: Microsomes from liver hold many membrane-bound enzymes, among them those of drug oxidation.
In a further series the target is Nitric oxide synthase 3 (Homo sapiens, UniProt P29474). Briefly: Inhibition of eNOS (unknown origin).
Another series concerns the target Nitric oxide synthase 1 (Rattus norvegicus, UniProt P29476). Briefly: Inhibition of recombinant rat nNOS assessed as conversion of L-arginine to citrulline after 30 mins.
Series [2] in a line: Selectivity ratio of IC50 for eNOS (unknown origin) to IC50 for recombinant rat nNOS.

SMILES strings stand for the structures.

Nitric oxide synthase 3, sequence (P29474 whole entry, looked up): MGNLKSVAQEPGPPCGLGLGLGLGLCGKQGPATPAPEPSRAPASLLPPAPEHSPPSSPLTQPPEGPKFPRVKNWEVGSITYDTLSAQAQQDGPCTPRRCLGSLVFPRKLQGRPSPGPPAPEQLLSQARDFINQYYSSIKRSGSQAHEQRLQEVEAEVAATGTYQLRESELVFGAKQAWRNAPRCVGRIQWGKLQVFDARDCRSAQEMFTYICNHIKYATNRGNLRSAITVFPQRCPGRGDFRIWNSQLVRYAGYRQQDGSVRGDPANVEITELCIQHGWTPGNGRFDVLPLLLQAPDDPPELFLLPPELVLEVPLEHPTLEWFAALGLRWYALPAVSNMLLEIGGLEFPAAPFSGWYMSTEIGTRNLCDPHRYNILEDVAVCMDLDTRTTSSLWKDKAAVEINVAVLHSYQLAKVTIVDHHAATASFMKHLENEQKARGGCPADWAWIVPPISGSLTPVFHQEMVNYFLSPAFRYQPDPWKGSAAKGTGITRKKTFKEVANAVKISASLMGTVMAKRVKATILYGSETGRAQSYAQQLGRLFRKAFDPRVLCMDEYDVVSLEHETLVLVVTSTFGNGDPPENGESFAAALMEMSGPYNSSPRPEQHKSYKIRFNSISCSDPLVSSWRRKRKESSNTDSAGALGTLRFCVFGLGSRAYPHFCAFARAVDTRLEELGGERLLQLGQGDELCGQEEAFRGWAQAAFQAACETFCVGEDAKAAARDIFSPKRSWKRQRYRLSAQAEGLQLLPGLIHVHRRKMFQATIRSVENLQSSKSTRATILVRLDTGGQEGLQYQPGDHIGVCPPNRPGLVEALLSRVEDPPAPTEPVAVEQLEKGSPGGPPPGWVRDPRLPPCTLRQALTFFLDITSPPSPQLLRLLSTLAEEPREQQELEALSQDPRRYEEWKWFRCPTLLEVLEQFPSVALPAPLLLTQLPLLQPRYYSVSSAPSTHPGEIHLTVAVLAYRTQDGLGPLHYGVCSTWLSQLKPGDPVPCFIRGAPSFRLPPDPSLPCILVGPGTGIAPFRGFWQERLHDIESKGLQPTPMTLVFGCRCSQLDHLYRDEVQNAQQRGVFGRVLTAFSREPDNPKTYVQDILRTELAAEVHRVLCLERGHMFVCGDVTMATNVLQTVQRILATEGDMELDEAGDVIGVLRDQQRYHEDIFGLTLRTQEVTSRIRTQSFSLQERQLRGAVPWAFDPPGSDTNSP
Nitric oxide synthase 1, sequence (P29476 whole entry): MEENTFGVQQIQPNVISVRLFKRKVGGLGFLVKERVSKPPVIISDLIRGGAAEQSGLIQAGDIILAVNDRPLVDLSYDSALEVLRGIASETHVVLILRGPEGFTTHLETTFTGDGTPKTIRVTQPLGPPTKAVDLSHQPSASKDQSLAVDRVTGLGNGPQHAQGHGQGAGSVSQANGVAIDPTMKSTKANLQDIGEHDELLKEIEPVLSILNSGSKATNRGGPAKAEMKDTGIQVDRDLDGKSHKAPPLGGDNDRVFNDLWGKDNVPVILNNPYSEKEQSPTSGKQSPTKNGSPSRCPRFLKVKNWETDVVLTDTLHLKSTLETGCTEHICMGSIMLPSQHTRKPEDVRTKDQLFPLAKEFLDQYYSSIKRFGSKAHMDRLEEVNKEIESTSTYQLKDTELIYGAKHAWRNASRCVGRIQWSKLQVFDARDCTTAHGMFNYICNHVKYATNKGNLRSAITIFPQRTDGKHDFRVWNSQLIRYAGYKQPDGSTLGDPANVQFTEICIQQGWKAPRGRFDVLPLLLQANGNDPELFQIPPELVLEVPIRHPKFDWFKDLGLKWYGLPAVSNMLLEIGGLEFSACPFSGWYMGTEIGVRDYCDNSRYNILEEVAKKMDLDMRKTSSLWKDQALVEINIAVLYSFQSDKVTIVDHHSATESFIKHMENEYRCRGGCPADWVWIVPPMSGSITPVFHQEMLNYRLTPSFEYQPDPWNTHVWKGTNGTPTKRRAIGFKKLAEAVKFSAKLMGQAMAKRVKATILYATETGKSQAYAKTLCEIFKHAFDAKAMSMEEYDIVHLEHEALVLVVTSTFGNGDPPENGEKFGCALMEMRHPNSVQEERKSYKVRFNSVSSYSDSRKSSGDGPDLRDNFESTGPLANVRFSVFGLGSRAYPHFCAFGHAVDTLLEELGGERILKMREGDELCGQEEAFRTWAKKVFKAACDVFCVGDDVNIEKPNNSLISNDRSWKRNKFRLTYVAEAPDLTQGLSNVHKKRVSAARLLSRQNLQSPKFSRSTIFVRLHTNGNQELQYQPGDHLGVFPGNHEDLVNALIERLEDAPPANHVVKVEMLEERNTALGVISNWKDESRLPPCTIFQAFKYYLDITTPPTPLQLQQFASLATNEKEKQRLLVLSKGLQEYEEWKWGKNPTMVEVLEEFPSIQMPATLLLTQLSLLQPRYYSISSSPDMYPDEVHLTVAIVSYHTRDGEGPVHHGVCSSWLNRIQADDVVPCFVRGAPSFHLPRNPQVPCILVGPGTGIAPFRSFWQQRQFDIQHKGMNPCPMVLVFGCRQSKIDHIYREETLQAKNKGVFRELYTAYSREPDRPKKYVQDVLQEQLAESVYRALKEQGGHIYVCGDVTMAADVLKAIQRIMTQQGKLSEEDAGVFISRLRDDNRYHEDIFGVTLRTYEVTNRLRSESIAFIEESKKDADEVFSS

On to `CCCS(=O)(=O)N1CCC(O)(c2cccc(NC(=N)c3cccs3)c2)CC1`, for which the metabolised at 20 min in series [1] was 25%. Further, the IC50 on Nitric oxide synthase 3 came out at 18.2 µM; at Nitric oxide synthase 1, 0.706 µM. The Ratio IC50 in series [2] stood at 26.

As to `N=C(Nc1cccc(C2(O)CCN(CCc3ccc(Cl)c(Cl)c3)CC2)c1)c1cccs1`, the metabolised at 20 min in series [1] stood at 32%. Besides, the IC50 at Nitric oxide synthase 3 worked out at 28.3 µM; on Nitric oxide synthase 1, 0.017 µM. In addition, the Ratio IC50 in series [2] was found to be 1660.

Take `N=C(Nc1cccc(C2(O)CCN(CCc3cccc(Cl)c3)CC2)c1)c1cccs1`: the metabolised at 20 min in series [1] is 39%. Moreover, the IC50 against Nitric oxide synthase 3 came to 57.5 µM; on Nitric oxide synthase 1, 0.131 µM. In series [2], the Ratio IC50 was 438.

With `CC(C)S(=O)(=O)N1CCC(O)(c2cccc(NC(=N)c3cccs3)c2)CC1`, in series [1], the metabolised at 20 min was found to be 16%. For the same compound, the IC50 at Nitric oxide synthase 3 was 23 µM; at Nitric oxide synthase 1, 0.551 µM. Further, in series [2], the Ratio IC50 was found to be 42.

On to `CCCCNC(=O)N1CCC(O)(c2cccc(NC(=N)c3cccs3)c2)CC1`, for which the metabolised at 20 min in series [1] was 54%. Also, the IC50 amounted to 10 µM at Nitric oxide synthase 3 and 0.694 µM on Nitric oxide synthase 1. Moreover, the Ratio IC50 in series [2] was 14.

As for `N=C(Nc1cccc(C2(O)CCN(CCc3cccc(Cl)c3Cl)CC2)c1)c1cccs1`, the metabolised at 20 min in series [1] was found to be 23%. Besides, the IC50 stood at 100 µM on Nitric oxide synthase 3 and 0.129 µM at Nitric oxide synthase 1. Moreover, the Ratio IC50 in series [2] turned out to be 775.

In the case of `N=C(Nc1cccc(C2(O)CCN(C(=O)OCc3ccccc3)CC2)c1)c1cccs1`, the metabolised at 20 min in series [1] turned out to be 77%. Moreover, the IC50 on Nitric oxide synthase 3 worked out at 60.1 µM; at Nitric oxide synthase 1, 0.376 µM. Further, the Ratio IC50 in series [2] amounted to 159.

The values above are taken from ChEMBL document CHEMBL3217688, “Structure-based design, synthesis, and profiling of potent and selective neuronal nitric oxide synthase (nNOS) inhibitors with an amidinothiophene hydroxypiperidine scaffold” (Medchemcomm, 2011).
